Results published in US6552007B2, “Use of somatostatin analogs for the delivery of anti-tumor drugs to tumor cells” (priority 2000, dated 2003).
Where two headings read alike, the source gives them in different places. Where a SMILES comes first, the peptide text is derived from it. Bridges are numbered along the chain shown (N, C = ends). [ ]: non-standard residue; d: D form.

Columns and labels:
[1] = molecular target: human somatostatin receptors subtype 2 (Homo sapiens, UniProt P30874); details: cited from earlier work
human somatostatin receptors subtype 2, sequence (P30874 whole entry): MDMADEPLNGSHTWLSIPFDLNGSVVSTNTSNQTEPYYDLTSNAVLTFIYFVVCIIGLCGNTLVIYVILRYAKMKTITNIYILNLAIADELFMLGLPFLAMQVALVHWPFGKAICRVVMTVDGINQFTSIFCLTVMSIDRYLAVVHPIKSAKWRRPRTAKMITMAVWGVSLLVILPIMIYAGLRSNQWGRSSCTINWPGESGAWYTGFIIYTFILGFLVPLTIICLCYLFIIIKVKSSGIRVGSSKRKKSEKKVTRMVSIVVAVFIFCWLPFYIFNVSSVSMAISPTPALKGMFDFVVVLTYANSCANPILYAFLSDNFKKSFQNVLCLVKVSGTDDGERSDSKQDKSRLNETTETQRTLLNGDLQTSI

MCF-7 cells [2] = test: Cell death of MCF-7 cells after 1 day treatment; format: cell-based; details: 10^−5 M
CHO cells [3] = test: Cell death of CHO cells after 1 day treatment; format: cell-based; details: 10^−5 M
[4] = molecular target: human somatostatin receptors subtype 4 (Homo sapiens, UniProt P31391); details: cited from earlier work
human somatostatin receptors subtype 4, sequence (P31391 whole entry): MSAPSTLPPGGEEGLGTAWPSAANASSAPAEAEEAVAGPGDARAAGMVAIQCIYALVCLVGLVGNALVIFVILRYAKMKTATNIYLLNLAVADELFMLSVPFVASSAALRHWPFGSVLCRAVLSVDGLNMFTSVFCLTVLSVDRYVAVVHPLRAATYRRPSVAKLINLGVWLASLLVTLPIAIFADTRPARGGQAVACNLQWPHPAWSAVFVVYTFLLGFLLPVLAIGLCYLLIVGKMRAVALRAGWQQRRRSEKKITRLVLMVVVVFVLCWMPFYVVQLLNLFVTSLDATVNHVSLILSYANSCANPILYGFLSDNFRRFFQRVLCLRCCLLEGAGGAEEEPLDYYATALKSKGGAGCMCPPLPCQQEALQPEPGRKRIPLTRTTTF

MCF-7 cells [5] = test: Fluorescence microscopy binding of fluorescein-labeled octreotide to MCF-7 cells; details: 30 min, 4° C.; for binding (fluorescence labeling) to MCF-7 cells: 100 μg in 1 ml buffer
Experimental: Panels B, D, F and H which correspond to panels A, C, E and G, respectively, show the fluorescence labeled octreotide binding to the MCF-7 cells and the CHO. The MCF-7 cells and CHO cells are inclubated with 100 μg of fluorescein labeled octerotide in 1 ml of a buffer for 30 minutes at 4 ° C., after which the cells are washed with PBS, fixed with 4% paraformaldehye and subject to fluorescence microscopy.

CHO cells [6] = details: 30 min, 4° C.; for binding (fluorescence labeling) to CHO cells: 100 μg in 1 ml buffer; for binding to CHO cells at higher concentration of labeled octreotide: higher concentration (500 μg/ml)
Experimental: FIG. 2 depicts fluorescence micrographs of MCF-7 and CHO cells after incubation with fluorescin-octreotide at 4° C. for 30 min. […] Cell morphology was shown at A, C, E, and G. Bar=20 μm;
The MCF-7 cells and CHO cells are inclubated with 100 μg of fluorescein labeled octerotide in 1 ml of a buffer for 30 minutes at 4 ° C., after which the cells are washed with PBS, fixed with 4% paraformaldehye and subject to fluorescence microscopy.

MCF-7 cells [7] = test: Internalization of labeled octreotide by MCF-7 cells (somatostatin receptor-mediated endocytosis); format: cell-based; details: one hour incubation, 100 μg/ml, 37° C.
MCF-7 cells [8] = details: paclitaxel at 10^−6 M, 1 day
[9] = listed as fluorescin-octreotide

## C[C@@H](O)[C@@H]1NC(=O)[C@H](CCCCN)NC(=O)[C@@H](Cc2c[nH]c3ccccc23)NC(=O)[C@H](Cc2ccccc2)NC(=O)[C@@H](NC(=O)[C@H](N)Cc2ccccc2)CSSC[C@@H](C(=O)N[C@H](CO)[C@@H](C)O)NC1=O [octreotide, D-Phe-c[Cys-Phe-D-Trp-Lys-Thr-Cys]-Thr(ol)]
[1]
  affinity to human somatostatin receptor subtype 2: high affinities

## CC(=O)O[C@H]1C(=O)[C@@]2(C)[C@H]([C@H](OC(=O)c3ccccc3)[C@]3(O)C[C@H](OC(=O)[C@H](O)[C@@H](NC(=O)c4ccccc4)c4ccccc4)C(C)=C1C3(C)C)[C@]1(OC(C)=O)CO[C@@H]1C[C@@H]2O [paclitaxel, reference compound]
MCF-7 cells [2]
  death of MCF-7 cells: causes death of both MCF-7 cells and CHO cells
CHO cells [3]
  death of CHO cells: causes death of both MCF-7 cells and CHO cells

## CC(C)[C@@H]1NC(=O)[C@H](CCCCN)NC(=O)[C@@H](Cc2c[nH]c3ccccc23)NC(=O)[C@H](Cc2ccc(O)cc2)NC(=O)[C@@H](NC(=O)[C@H](N)Cc2ccccc2)CSSC[C@@H](C(=O)N[C@@H](Cc2c[nH]c3ccccc23)C(N)=O)NC1=O [vapreotide, D-Phe-c[Cys-Tyr-D-Trp-Lys-Val-Cys]-Trp-NH2] (H-[dF]CY[dW]KVCW-NH2; disulfide 2-7)
[4]
  affinity to human somatostatin receptor subtype 4: high affinities

## Fluorescein-Octreotide [labeled octreotide]
MCF-7 cells [5]
  binding (fluorescence labeling) to MCF-7 cells: binds to the MCF-7 cells
MCF-7 cells [5]; [9]
  binding (fluorescence labeling) to MCF-7 cells: labeling is confined to the MCF-7 cell surface
MCF-7 cells [5]; excessive amount (1,000 fold) of nonfluorescent octreotide
  binding to MCF-7 cells in the presence of excessive non-labeled octreotide: disappears
CHO cells [6]
  binding (fluorescence labeling) to CHO cells: not to the CHO cells
  binding to CHO cells at higher concentration of labeled octreotide: does not bind to the CHO cells
CHO cells [6]; [9]
  binding (fluorescence labeling) to CHO cells: No labeling can be seen among the CHO cells
  binding to CHO cells at higher concentration of labeled octreotide: No labeling
MCF-7 cells [7]
  internalization into MCF-7 cytosol: internalized into the MCF-7 cytosol
MCF-7 cells [7]; [9]
  internalization into MCF-7 cytosol: internalization

## Paclitaxel-Glutary 1-Octreotide [octreotide conjugated paclitaxel]
MCF-7 cells [2]
  cell specificity (MCF-7 versus CHO cells): specific to MCF-7 cells
  death of MCF-7 cells: induces only the death of the MCF-7 cells
CHO cells [3]
  death of CHO cells: not of the CHO cells
MCF-7 cells [8]
  anti-tumor activity through disrupting microtubule formation, compared with non-conjugated paclitaxel: same anti- tumor activity through disrupting microtubule formation
MCF-7 cells [8]; listed as octreotide-conjugated taxol
  anti-tumor activity through disrupting microtubule formation, compared with non-conjugated paclitaxel: virtually retains the cellular functions of taxol
